Laboratory results: patent US9827320B2, “Compositions with reduced bitter taste perception” (The Procter & Gamble Company, priority 2014, dated 2017)
Structures can show the parent of a compound that is named as a salt.

Tested on: Human fungiform taste bud cells
Assay: Assay for Taste Receptors (calcium fluorescence, FLIPR)
Format: cell-based
Conditions: FIG. 5B; 0.5 mM 1,10-phenanthroline, 0.5 mM saccharin, 3% propylene glycol; without polyquaternium-2

| SMILES | bitterness of the component itself |
| --- | --- |
| c1cnc2c(c1)ccc1cccnc12 [1,10-phenanthroline] | very bitter |
| CC(O)CO (stereo not drawn) [propylene glycol] | very bitter |
| O=C1NS(=O)(=O)c2ccccc21 [saccharin] | very bitter |

Same assay, conditions: FIG. 5C; 2 mM; without polyquaternium-2

| SMILES | bitterness of the component itself |
| --- | --- |
| CNC(N)=S [N-methylthiourea] | only slightly bitter |
| N#C[C@H](O[C@@H]1O[C@H](CO[C@@H]2O[C@H](CO)[C@@H](O)[C@H](O)[C@H]2O)[C@@H](O)[C@H](O)[C@H]1O)c1ccccc1 [amygdalin] | only slightly bitter |
| N=C(NCCCCCCNC(=N)NC(=N)Nc1ccc(Cl)cc1)NC(=N)Nc1ccc(Cl)cc1 [chlorhesidice] | only slightly bitter |
| Cc1ccccc1C(OCCN(C)C)c1ccccc1 (stereo not drawn) [orphenadrine hydrochloride] | most bitter component |
| CCN(CC)CCNC(=O)c1ccc(N)cc1 [procainamide hydrochloride] | only slightly bitter |
| O=C1CCCCCN1 [ε-Caprolactam] | only slightly bitter |
